Reference: patent US20240279202A1 (NURIX THERAPEUTICS, INC., priority 2021, published 2024)

Target: T1, ITK (Homo sapiens, UniProt Q08881)
T1 sequence (Q08881 1-620): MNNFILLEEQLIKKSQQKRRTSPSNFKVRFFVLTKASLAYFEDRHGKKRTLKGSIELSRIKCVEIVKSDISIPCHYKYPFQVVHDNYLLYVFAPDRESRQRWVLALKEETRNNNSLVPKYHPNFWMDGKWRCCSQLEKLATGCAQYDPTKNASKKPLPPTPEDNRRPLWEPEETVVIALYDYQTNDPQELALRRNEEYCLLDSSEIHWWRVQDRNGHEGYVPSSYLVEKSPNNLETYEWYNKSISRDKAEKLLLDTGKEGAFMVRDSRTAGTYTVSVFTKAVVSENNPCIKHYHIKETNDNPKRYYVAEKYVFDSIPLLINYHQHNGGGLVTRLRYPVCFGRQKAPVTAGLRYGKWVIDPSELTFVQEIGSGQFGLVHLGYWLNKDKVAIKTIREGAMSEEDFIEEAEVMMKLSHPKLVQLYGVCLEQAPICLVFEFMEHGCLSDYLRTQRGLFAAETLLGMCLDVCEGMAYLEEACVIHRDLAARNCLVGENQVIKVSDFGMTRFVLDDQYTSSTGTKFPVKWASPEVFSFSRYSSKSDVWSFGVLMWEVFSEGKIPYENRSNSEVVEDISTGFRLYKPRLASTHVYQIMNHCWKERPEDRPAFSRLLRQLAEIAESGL
Assay: ITK degradation HiBiT assay
Format: cell-based
Set-up: expressed in transfected cells; host or cells: Molt4 (ATCC CRL-1552), monoclonal clone 1C10, engineered to carry the HiBiT tag
Details: 4 hrs; for DC50: C-terminal HiBiT-tagged Molt4 cells; for Dmax: MOLT-4, C-terminal HiBiT-tagged Molt4 cells
Protocol: Itk Degradation Hibit Assay
Compounds provided herein were assayed in vitro with ITK HiBit cell lines. Compound dilution series (11-point, 5 fold dilutions in DMSO, columns 2-12 with replicate in rows A/B, C/D, E/F, G,H at 2000× the final required concentrations were prepared in 96 well plates (Falcon, cat. no. 353077). Column 1, rows A-H were control DMSO. The 2000× solutions ranged from 2 mM to 1.024 nM (final assay concentration range 1 μM to […]). The 2000× solutions were added to cells in […], for a final DMSO concentration of 0.5% and final assay compound concentration of 1×. For the cells, C-terminal HiBiT-tagged Molt4 cells (ATCC CRL-1552, monoclonal cell line clone 1C10) were plated at 1×10^6 cells/mL, 100 μL/well ([…]) in complete RPMI (10% FBS, 1% L-glutamine). The cells were incubated with compound 10 and compound 17 for 4 hrs at […]/6% CO2.
Following incubation, 100 μL of complete Nano-Glo HiBiT Lytic Detection Reagent (Nano-Glo HiBiT Lytic Buffer with 1:50 Nano-Glo HiBiT Lytic Substrate and 1:100 LgBiT Protein; Promega cat. no. N3040) was added. Cells were further incubated for 10 min at room temperature (RT). Luminescence units (LU) were read on an EnVision plate reader (Perkin Elmer, 0.1 sec per well). Percent ITK remaining per sample was calculated as follows: […]
Using Graphpad Prism, % ITK remaining values were plotted as a function of compound concentration. To determine DC50 and Dmax values, resulting curves were fit to the Prism curve-fitting equation “log(inhibitor) vs response—Variable slope (four parameters)” (reported best fit value IC50 used as DC50). ITK was measured with antibody-based MSD (Meso-Scale Discovery) assays shown below.

SMILES | DC50 [nM] | Dmax [%]
C[C@@]12Cc3[nH]nc(-c4cc5ccc(N6CCC7(CCN(C(=O)C8CCN(c9ccc(C%10CCC(=O)NC%10=O)cn9)CC8)CC7)C6=O)cc5[nH]4)c3C[C@@H]1C2(F)F (stereo partly drawn) [Compound 24, 3-(6-(4-(2-(2-((4aS,5aR)-5,5-difluoro-5a-methyl-1,4,4a,5,5a,6-hexahydrocyclopropa[f]indazol-3-yl)-1H-indol-6-yl)-1-oxo-2,8-diazaspiro[4.5]decane-8-carbonyl)piperidin-1-yl)pyridin-3-yl)piperidine-2,6-dione] | 0.01 | 
C[C@@]12Cc3[nH]nc(C(=O)Nc4cnn(C5CCC(CN6CCN(c7ccc(C8CCC(=O)NC8=O)cn7)CC6)CC5)c4)c3C[C@@H]1C2(F)F (mixture of isomers) [Compound 125, (4aS,5aR)-5,5-difluoro-5a-methyl-N-{1-[(1rs,4rs)-4-[(4-{5-[(3RS)-2,6-dioxopiperidin-3-yl]pyridin-2-yl}piperazin-1-yl)methyl]cyclohexyl]-1H-pyrazol-4-yl}-1H,4H,4aH,5H,5aH,6H-cyclopropa[f]indazole-3-carboxamide] | 3.3 | 88
C[C@@]12Cc3[nH]nc(C(=O)Nc4cnn(C5CCN(C(=O)CC6CCN(c7ccc(C8CCC(=O)NC8=O)cn7)CC6)CC5)c4)c3C[C@@H]1C2(F)F (mixture of isomers) [Compound 166] |  | 88
C[C@@]12Cc3[nH]nc(C(=O)Nc4cnn(C5CN(CC6CCN(c7ccc(C8CCC(=O)NC8=O)cc7)CC6)C5)c4)c3C[C@@H]1C2(F)F (stereo partly drawn) [Compound 91, (4aS,5aR)-N-(1-(1-((1-(4-(2,6-dioxopiperidin-3-yl)phenyl)piperidin-4-yl)methyl)azetidin-3-yl)-1H-pyrazol-4-yl)-5,5-difluoro-5a-methyl-1,4,4a,5,5a,6-hexahydrocyclopropa[f]indazole-3-carboxamide] | 0.24 | 85
C[C@@]12Cc3[nH]nc(-c4cc5cc(F)c(C(=O)N6CCN(C[C@H]7CCN(c8ccc(C9CCC(=O)NC9=O)cc8)C7)CC6)cc5[nH]4)c3C[C@@H]1C2(F)F (some centres unmarked) [Compound 145] |  | 75
CC1(C)CCc2c(-c3cc4ccc(C(=O)N5CCN(CC6CCN(c7ncc(C8CCC(=O)NC8=O)cc7F)CC6)CC5)cc4[nH]3)n[nH]c2C1 (centres unmarked) [Compound 183] |  | 81
C[C@@]12Cc3[nH]nc(-c4cc5cc(C(=O)N6CCN(CC7(F)CCN(c8ccc(C9CCC(=O)NC9=O)cc8)CC7)CC6)ccc5[nH]4)c3C[C@@H]1C2(F)F (some centres unmarked) [Compound 141] |  | 86
COC[C@@]1(C)CCc2c(-c3cc4ccc(C(=O)N5CCN(CC6CCN(c7ccc(C8CCC(=O)NC8=O)cc7)CC6)CC5)cc4[nH]3)n[nH]c2C1 (some centres unmarked) [Compound 140] |  | 84
Cn1c(=O)n(C2CCC(=O)NC2=O)c2ccc(N[C@H]3CC[C@H](C(=O)N4CCC(n5cc(NC(=O)c6n[nH]c7c6C[C@@H]6C(F)(F)[C@]6(C)C7)cn5)CC4)CC3)cc21 (mixture of isomers) [Compound 169] |  | 80
C[C@@]12Cc3[nH]nc(C(=O)Nc4cnn(CC5CCN(CC6CCN(c7ccc(C8CCC(=O)NC8=O)cn7)CC6)CC5)c4)c3C[C@@H]1C2(F)F (mixture of isomers) [Compound 120, (4aS,5aR)-N-[1-({1-[(1-{5-[(3RS)-2,6-dioxopiperidin-3-yl]pyridin-2-yl}piperidin-4-yl)methyl]piperidin-4-yl}methyl)-1H-pyrazol-4-yl]-5,5-difluoro-5a-methyl-1H,4H,4aH,5H,5aH,6H-cyclopropa[f]indazole-3-carboxamide] | 0.049 | 84
C[C@@]12Cc3[nH]nc(-c4cc5ccc(C(=O)N6CCN(CC7CCN(c8ccc(C9CCC(=O)NC9=O)cc8)CC7)CC6)cc5[nH]4)c3C[C@@H]1C2(F)F (stereo partly drawn) [Compound 135, 3-(4-(4-((4-(2-((4aS,5aR)-5,5-difluoro-5a-methyl-1,4,4a,5,5a,6-hexahydrocyclopropa[f]indazol-3-yl)-1H-indole-6-carbonyl)piperazin-1-yl)methyl)piperidin-1-yl)phenyl)piperidine-2,6-dione] | < 0.01 | 85
CC1(C)CCc2c(C(=O)Nc3cnn([C@H]4CC[C@H](C(=O)N5CCN(c6ccc(C7CCC(=O)NC7=O)cc6)CC5)CC4)c3)n[nH]c2C1 (mixture of isomers) [Compound 176] |  | 76
CC1(C)CCc2c(-c3cc4ccc(C(=O)N5CCN(CC6CCN(c7ccc(C8CCC(=O)NC8=O)cn7)CC6)C(C)(C)C5)cc4[nH]3)n[nH]c2C1 (centres unmarked) [Compound 133, 3-(6-(4-((4-(2-(6,6-dimethyl-4,5,6,7-tetrahydro-1H-indazol-3-yl)-1H-indole-6-carbonyl)-2,2-dimethylpiperazin-1-yl)methyl)piperidin-1-yl)pyridin-3-yl)piperidine-2,6-dione] | 1.6 | 86
CC1(C)CCc2c(-c3cc4ccc(C(=O)N5CCN(CCC6CCN(c7cc(C8CCC(=O)NC8=O)ccn7)CC6)CC5)cc4[nH]3)n[nH]c2C1 (centres unmarked) [Compound 186] |  | 87
CC1(C)CCc2c(-c3cc4ccc(C(=O)N5CCN(CC6CCN(c7ccc(C8CCC(=O)NC8=O)cc7F)CC6)CC5)cc4[nH]3)n[nH]c2C1 (centres unmarked) [Compound 222, 3-{4-[4-({4-[2-(6,6-dimethyl-1,4,5,7-tetrahydroindazol-3-yl)-1H-indole-6-carbonyl]piperazin-1-yl}methyl)piperidin-1-yl]-3-fluorophenyl}piperidine-2,6-dione] | 1.42 | 75
CN(CC1CCN(C(=O)c2ccc3cc(-c4n[nH]c5c4CCC(C)(C)C5)[nH]c3c2)CC1)C1CCN(c2ccc(C3CCC(=O)NC3=O)cn2)CC1 (centres unmarked) [Compound 63, 3-(6-(4-(((1-(2-(6,6-dimethyl-4,5,6,7-tetrahydro-1H-indazol-3-yl)-1H-indole-6-carbonyl)piperidin-4-yl)methyl)(methyl)amino)piperidin-1-yl)pyridin-3-yl)piperidine-2,6-dione] | 0.003 | 80
CC1(C)CCc2c(-c3cc4ccc(C(=O)N5CCN(CC6CCN(c7ccc(C8CCC(=O)NC8=O)c(F)c7)CC6)CC5)cc4[nH]3)n[nH]c2C1 (centres unmarked) [Compound 221, 3-(4-(4-((4-(2-(6,6-dimethyl-4,5,6,7-tetrahydro-1H-indazol-3-yl)-1H-indole-6-carbonyl)piperazin-1-yl)methyl)piperidin-1-yl)-2-fluorophenyl)piperidine-2,6-dione] | 3.57 | 84
C[C@@H]1CN(c2ccc(C3CCC(=O)NC3=O)cn2)CCN1CC1CCN(C(=O)c2ccc3cc(-c4n[nH]c5c4CCC(C)(C)C5)[nH]c3c2)CC1 (some centres unmarked) [Compound 189] |  | 84
C[C@@]12Cc3[nH]nc(C(=O)Nc4cnn(C5CCN(CC6CCN(c7ccc(C8CCC(=O)NC8=O)cc7F)CC6)CC5)c4)c3C[C@@H]1C2(F)F (mixture of isomers) [Compound 112, (4aS,5aR)-N-(1-{1-[(1-{4-[(3RS)-2,6-dioxopiperidin-3-yl]-2-fluorophenyl}piperidin-4-yl)methyl]piperidin-4-yl}-1H-pyrazol-4-yl)-5,5-difluoro-5a-methyl-1H,4H,4aH,5H,5aH,6H-cyclopropa[f]indazole-3-carboxamide] | 0.14 | 87
CC1(C)CCc2c(-c3cc4ccc(C(=O)N5CCC(CN6CCCc7cc(C8CCC(=O)NC8=O)ccc76)CC5)cc4[nH]3)n[nH]c2C1 (centres unmarked) [Compound 199] |  | 52
